# According to article PMC6943417, “Housefly Pupae-Derived Antioxidant Peptides Exerting Neuroprotective Effects on Hydrogen Peroxide-Induced Oxidative Damage in PC12 Cells” (Molecules, 2019):
# Where no end group is shown, it is not given here.
# Tested on: pepsin and pancreatin
# Type: in vitro ADME
# Description: The ABTS cation radical scavenging activity assay was conducted according to the manufacture instruction. […] The ABTS cation radical scavenging activity was calculated by the following formula: ABTS cation radical scavenging activity (%) = (1 − A1/A0) × 100%(2) where A1 and A0 were the absorbances of sample group and control group, respectively. The sample solution of control group was replaced with deionized water. Ascorbic acid was used as a positive control.
# Thermal stability of synthetic peptides was determined according to the method of Yarnpakdee et al. with minor modifications. The synthetic peptides were respectively incubated at 25, 60, 70, 80, 90 °C for 30 min and then measured their scavenging ability of ABTS cation radical. The ability of synthetic peptides against pH treatments was measured according to Zhu et al.. In brief, pH of peptide solution was adjusted to 1, 3, 5, 7, 9, 11, incubated at room temperature for 1 h, and then ABTS cation radical scavenging activity of the treated peptides was measured. A two-stage digestion of protease in vitro (pepsin-digestion for 1 h and then pancreatin-digestion for 2 h at 37 °C) was performed as described by Zhang et al.. The ABTS cation radical scavenging ability was evaluated to assess the peptides stability against GI digestion.
row,change in ABTS radical scavenging ability after simulated GI digestion,Sequence
1,slight decrease,"DFTPVCTTELGR [DR12, Asp-Phe-Thr-Pro-Val-Cys-Thr-Thr-Glu-Leu-Gly-Arg]"
2,no significant change,"ARFEELCSDLFR [AR12, Ala-Arg-Phe-Glu-Glu-Leu-Cys-Ser-Asp-Leu-Phe-Arg]"
